In US12054509B2, “Antimicrobial compounds, compositions, and uses thereof” (Lakewood Amedex, Inc., priority 2017, dated 2024):

Legend:
[1] = Pow (partition coefficient); assay type: physicochemical
[2] = pH of 20 mg/mL (2%) aqueous solution; assay type: physicochemical; conditions: 20 mg/mL in DI water
Protocol: pH studies are conducted to show the pH of Nu-8 compared to Bisphosphocin® compounds Nu-2, Nu-4, and Nu-5. 20 mg/mL Nu-2 solution is prepared by diluting 2 mL of 250 mg/mL Nu-2 solution with 23 mL DI water. 20 mg/mL Nu-4 and Nu-5 solutions are prepared in the same way. 401.65 mg Nu-8 is weighed in a 5 mL volumetric flask and diluted with DI water to volume. 20 mg/mL Nu-8 solution is prepared by diluting 5 mL of 80.3 mg/mL Nu-8 solution with 15 mL DI water. The pH values of 4 Nu-2, Nu-4, Nu-5, and Nu-8 at 20 mg/mL are measured with a calibrated pH meter. Also shown in TABLE 2 is a summary of other physical properties of the compound of Formula (I) and reference compounds Nu-2, Nu-4, and Nu-5.

[3] = system: Escherichia coli (strain CFT073, TPPS 1041); assay: Urinary tract infection model in BALB/c mice, initial efficacy (Example 10); assay type: in vivo; conditions: 50 mg/kg transurethral at 24 hr, 60 minutes post-treatment
Source text: Female BALB/c mice (20-22 g) ordered from Envigo are acclimated to housing conditions and handled in accordance with Animal Use Protocol (AUP) number TP-08. Animals are fed irradiated Teklad Global 29 18 Rodent Diet and water ad libitum. Mice are housed 6/cage in static cages with irradiated ⅛″ Teklad corn cobbedding 7902 inside bioBubble® clean rooms that provide H.E.P.A filtered air into the bubble environment at 100 complete air changes per hour. The environment is controlled to a temperature range of 74°±4° F. and a humidity range of 30-70%. All procedures carried out in this experiment are conducted in compliance with the laws, regulations, and guidelines of the National Institutes of Health and with the approval of the TransPharm Preclinical Solutions Animal Care and Use Committee.
A clinical isolate of Escherichia coli (strain CFT073, TPPS 1041) are procured from the University of Michigan.
The organism is grown overnight at 37° C. in ambient atmosphere on trypticase soy agar plates supplemented with 5% sheep blood cells. The culture is aseptically swabbed and transferred to tubes of trypticase soy broth. The optical density is determined at 600 nm. The culture is diluted to provide an inoculum of approximately 7.5 log10 CFU per mouse in a volume of 30 μL. Instillation of the bacterial challenge constituted time 0 hour for the study. Inoculum counts are estimated before inoculation by optical density and confirmed after inoculation by dilution and back counts.
One hour prior to bacterial challenge, water is removed from animal cages. […]
The primary endpoint used to assess progress of the infection is mean bacterial burden per gram of urinary bladder tissue. […] Colony forming units (CFU) are enumerated and the total bacterial burden per gram of urinary bladder tissue homogenate is calculated.
The geometric mean CFU, along with standard error of the mean (SEM), are calculated using Microsoft Excel and bar charts are prepared for the data using GraphPad Prism v. […]

[4] = system: E. coli ATCC 25922; assay: Bacterial cytological profiling (Example 6), E. coli; assay type: cell-based; conditions: for effect on cell envelope: BCP; for cell membrane permeability: buffered pH 4 or unbuffered LB; for DNA condensation: higher treatment concentrations, buffered pH 4; for cell wall deformations: unbuffered LB;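 as to cell wall deformations: tested at 1 0.5 and 0.25 times MIC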;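 as to effect on cell envelope: tested at 1 0.5 and 0.25 times MIC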
Protocol: (§1) This bacterial cytological profiling (BCP) study uses methods and materials described previously by Nonejuie, P., Burkart, M., Poglianoa, K., Pogiano, J. (2013). Bacterial cytological profiling rapidly identifies the cellular pathways targeted by antibacterial molecules. Proc. Natl. Acad. Sci. U.S.A. 110(40):16169-16174. doi: 10.1073/pnas.1311066110.
(§2) Wild type strains of E. coli ATCC 25922 or P. aeruginosa K2732 are grown in rich media (unbuffered 2× Lysogeny broth [LB]) at 30 C to an OD600˜0.4. These cultures are then split and each sample treated with the appropriate concentration of Nu-8 in unbuffered or buffered LB (final mixture OD600˜0.1). Cells exposed without Nu-8 are buffered to pH 4 with phosphoric acid.
(§3) The BCP is performed in LB media buffered to pH 4. The minimum inhibitory concentration (MIC) is measured for Nu-3, Nu-4, Nu-5, and Nu-8 against each bacterial strain. As one of ordinary skill in the art understands, minimum inhibitory concentrations are the lowest concentration of an antimicrobial that will inhibit the visible growth of a microorganism after overnight incubation. […] Cellular viability is assayed at three time points (5 minutes and 4 and 24 h following the onset of treatment).
(§4) For imaging E. coli, treated cells are stained with 1 μg/Ml FM4-64, 2 μg/mL DAPI, and 0.5 μM SYTOXGreen (Molecular Probes/Invitrogen). P. aeruginosa samples are stained 0.5 μM SYTOX Green, 28 μg/mL DAPI, and 4.5 μg/mL FM 4-64. Cells are transferred to an agarose pad (20% LB, 1% agarose) for imaging as described in Pogliano, J., Osborne, N., Sharp, M. D., Abanes-De Mello, A., Perez, A., Sun, Y.-L. and Pogliano, K. (1999), A vital stain for studying membrane dynamics in bacteria: a novel mechanism controlling septation during Bacillus subtilis sporulation. Molecular Microbiology, 31: 1149-1159. doi:10.1046/j.1365-2958.1999.01255.x.

[5] = system: P. aeruginosa K2732; assay: Bacterial cytological profiling (Example 6), P. aeruginosa; assay type: cell-based; conditions: for effect on cell envelope: BCP; for cell membrane permeability: buffered pH 4 or unbuffered LB;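 as to effect on cell envelope: tested at 1 0.5 and 0.25 times MIC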
Protocol: as §1, §2, §3, §4

Row | Compound | Pow [1] | pH (2% solution) [2] | average bladder CFU burden [3] [log10 CFU] | effect on cell envelope [4] | cell membrane permeability [4] | DNA condensation [4] | cell wall deformations [4] | effect on cell envelope [5] | cell membrane permeability [5]
1 | COC1[C@@H](OP(=O)(O)OCCCCO)[C@@H](COP(=O)(O)OCCCCO)O[C@H]1n1ccc(=O)[nH]c1=O (stereo partly shown) [Nu-2] | 0.0407 | 0.99 | – | – | – | – | – | – | –
2 | gentamicin [reference compound] | – | – | 6.1 | – | – | – | – | – | –
3 | CCCCOP(=O)(O)OC[C@H]1O[C@@H](n2cc(C)c(=O)[nH]c2=O)C[C@H]1OP(=O)(O)OCCCC [Nu-4] | 0.0592 | 0.94 | – | affect the cell envelope | increase cell membrane permeability | causes DNA condensation | cause cell wall deformations | affect the cell envelope | increase cell membrane permeability
4 | CCCCOP(=O)(O)OCCOCCOP(=O)(O)OCCCC [Nu-5] | 0.0480 | 0.93 | – | affect the cell envelope | increase cell membrane permeability | causes DNA condensation | cause cell wall deformations | affect the cell envelope | increase cell membrane permeability
